Data on 19 molecules can be found in EP4755886A1 (Chengdu Chipscreen Pharmaceutical Ltd., priority 2023, dated 2025).

Each structure is given as a SMILES string. pIC50: −log10 of the molar value.

For one test, the system named is MTAP^-/- HCT-116 cells. Put plainly: Cell proliferation (MTS), MTAP-/- HCT-116. It is filed as cell-based, human. The settings on record: for Selectivity: HCT116 WT IC50 relative to HCT116 MTAP-/- IC50; for pIC50: Homo sapiens, 240 h, MTAP-/- HCT-116, 10 days with compound, MTS reading, read-out: IC50 HCT116 MTAP-/-. The source says: The colon cancer cell strain HCT-116 (purchased from Nanjing Cobioer) was co-transfected with the gene editing tool CRISPR/Cas9 and sgRNA, and the MTAP^-/- HCT-116 cell strain with biallelic inactivation of MTAP was obtained by assays such as Western Blotting and Sanger sequencing. The MTAP^-/- HCT-116 cell strain was used for compound selectivity screening and evaluation based on the synergistic mechanism of MTAP deletion and PRMT5, including a symmetric dimethylarginine (SDMA) level test, a cell proliferation test, and the like.
On day 0, MTAP^-/- HCT-116 cells or wild-type HCT-116 cells were added to a 96-well cell culture plate (Corning, 3599) at 100 cells/well, and the plate was incubated in an incubator at 37 °C with 5% CO2. The compound was diluted in a 3-fold gradient with DMSO (Sigma, D5879) (initial concentration: 20 µM, 3-fold dilution, 8 concentration points in total). On day 1, the compound was diluted to multiple concentration points, and the cells were treated separately and incubated in the incubator at 37 °C with 5% CO2 for another 10 days. On Day 11, 20 µL of MTS (CellTiter 96® AQueous One Solution Cell Proliferation Assay) (Promega, G3581) was added to each well. […] In the formula, Y represents the inhibition rate, X represents the logarithm of the compound concentration, Top represents the maximum response (the inhibition rate at the maximum compound concentration), Bottom represents the baseline response (the inhibition rate where the compound concentration was 0), Hill Slope represents the slope of the IC50 curve, and IC50 represents the half maximal inhibitory concentration.

For a further test, the system named is wild-type HCT-116 cells. Put plainly: Cell proliferation (MTS), wild-type HCT-116. It is filed as cell-based. The settings on record: Homo sapiens, 240 h; wild-type HCT-116, 10 days with compound, MTS reading; read-out: IC50 HCT116 WT. The procedure: MTAP^-/- HCT-116 and wild-type HCT-116 cell strains were cultured in complete medium McCoy's 5A (Gibco, 16600082)/10% FBS (Gibco, 10099141C)/1% p/s (Gibco, 15140122) to evaluate the enhanced inhibitory effect of the compounds against the proliferation selectivity of MTAP^-/- HCT-116 cells. On day 0, MTAP^-/- HCT-116 cells or wild-type HCT-116 cells were added to a 96-well cell culture plate (Corning, 3599) at 100 cells/well, and the plate was incubated in an incubator at 37 °C with 5% CO2. The compound was diluted in a 3-fold gradient with DMSO (Sigma, D5879) (initial concentration: 20 µM, 3-fold dilution, 8 concentration points in total). On day 1, the compound was diluted to multiple concentration points, and the cells were treated separately and incubated in the incubator at 37 °C with 5% CO2 for another 10 days. On Day 11, 20 µL of MTS (CellTiter 96® AQueous One Solution Cell Proliferation Assay) (Promega, G3581) was added to each well. […] In the formula, Y represents the inhibition rate, X represents the logarithm of the compound concentration, Top represents the maximum response (the inhibition rate at the maximum compound concentration), Bottom represents the baseline response (the inhibition rate where the compound concentration was 0), Hill Slope represents the slope of the IC50 curve, and IC50 represents the half maximal inhibitory concentration. Table 1. IC50 (µM)

Regarding `CN(C(=O)c1ccc2nc(N)c3c(c2c1)COC3)C1COc2cc(C#Cc3cnn(C)c3)ccc21` (racemic) [Compound 3, 4-amino-N-methyl-N-(6-((1-methyl-1H-pyrazol-4-yl)ethynyl)-2,3-dihydrobenzofuran-3-yl)-1,3-dihydrofuran[3,4-c]quinoline-8-carboxamide], in the test with MTAP^-/- HCT-116 cells, the Selectivity was determined as 160 and the pIC50 is 7.57. In addition, the pIC50 in the test with wild-type HCT-116 cells is 5.37.

As to `CN(C(=O)c1ccc2nc(N)c3cnn(C)c3c2c1)C1COc2cc(C#Cc3cnn(C)c3)ccc21` (stereo not drawn) [Compound 1, 4-amino-N,1-dimethyl-N-(6-((1-methyl-1H-pyrazol-4-yl)ethynyl)-2,3-dihydrobenzofuran-3-yl)-1H-pyrazolo[4,3-c]quinoline-8-carboxamide], in the test on MTAP^-/- HCT-116 cells, the Selectivity is reported as 140 and the pIC50 was 7.89. Moreover, the pIC50 with wild-type HCT-116 cells was 5.74.

As to `Cn1cc(C#Cc2ccc3c(c2)OCC3N(C(=O)c2ccc3nc(N)c4cnn(C)c4c3c2)C2CC2)cn1` (stereo not drawn) [Compound 2, 4-amino-N-cyclopropyl-1-methyl-N-{6-[(1-methylpyrazol-4-yl)ethynyl]-2,3-dihydro-1-benzofuran-3-yl}pyrazolo[4,3-c]quinoline-8-carboxamide], the Selectivity in the test on MTAP^-/- HCT-116 cells is 74. Besides, the pIC50 with MTAP^-/- HCT-116 cells was 7.86; with wild-type HCT-116 cells, 5.99.

For `CN(C(=O)c1cc2c(cc1F)nc(N)c1cnn(C)c12)C1COc2cc(C#Cc3cnn(C)c3)ccc21` (stereo not drawn) [Compound 5, 4-amino-7-fluoro-N,1-dimethyl-N-(6-((1-methyl-1H-pyrazol-4-yl)ethynyl)-2,3-dihydrobenzofuran-3-yl)-1H-pyrazolo[4,3-c]quinoline-8-carboxamide], in the test on MTAP^-/- HCT-116 cells, the Selectivity came to 97 and the pIC50 is 8.22. For the same molecule, the pIC50 with wild-type HCT-116 cells is 6.23.

Turning to `CN1CC=C(C#Cc2ccc3c(c2)OCC3N(C)C(=O)c2ccc3nc(N)c4cnn(C)c4c3c2)CC1` (stereo not drawn) [Compound 6, 4-amino-N,1-dimethyl-N-(6-((1-methyl-1,2,3,6-tetrahydropyridin-4-yl)ethynyl)-2,3-dihydrobenzofuran-3-yl)-1H-pyrazolo[4,3-c]quinoline-8-carboxamide], the Selectivity in the test with MTAP^-/- HCT-116 cells is on record as 257. Moreover, the figures for the pIC50 in the test on MTAP^-/- HCT-116 cells and in the test with wild-type HCT-116 cells were 7.97 and 5.56, respectively.

Turning to `CCN(C(=O)c1ccc2nc(N)c3cnn(C)c3c2c1)C1COc2cc(C#Cc3cnn(C)c3)ccc21` (stereo not drawn) [Compound 7, 4-amino-N-ethyl-1-methyl-N-(6-((1-methyl-1H-pyrazol-4-yl)ethynyl)-2,3-dihydrobenzofuran-3-yl)-1H-pyrazolo[4,3-c]quinoline-8-carboxamide], the Selectivity in the test on MTAP^-/- HCT-116 cells is reported as 110. Moreover, the values for the pIC50 with MTAP^-/- HCT-116 cells and in the test with wild-type HCT-116 cells were 8.27 and 6.23, respectively.

Regarding `CN(C(=O)c1cc2c(cc1Cl)nc(N)c1cnn(C)c12)C1COc2cc(C#Cc3cnn(C4CC4)c3)ccc21` (stereo not drawn) [Compound 8, 4-amino-7-chloro-N-(6-((1-cyclopropyl-1H-pyrazol-4-yl)ethynyl)-2,3-dihydrobenzofuran-3-yl)-N,1-dimethyl-1H-pyrazolo[4,3-c]quinoline-8-carboxamide], in the test with MTAP^-/- HCT-116 cells, the Selectivity is 47 and the pIC50 was 8.52. Besides, the pIC50 with wild-type HCT-116 cells was 6.85.

Turning to `CC(C)n1cc(C#Cc2ccc3c(c2)OCC3N(C)C(=O)c2cc3c(cc2Cl)nc(N)c2cnn(C)c23)cn1` (stereo not drawn) [Compound 14, 4-amino-7-chloro-N-(6-((1-isopropyl-1H-pyrazol-4-yl)ethynyl)-2,3-dihydrobenzof uran-3-yl)-N,1-dimethyl-1H-pyrazolo[4,3-c]quinoline-8-carboxamide], the pIC50 in the test with MTAP^-/- HCT-116 cells was 8.05.

Consider `CCn1cc(C#Cc2ccc3c(c2)OCC3N(C)C(=O)c2cc3c(cc2Cl)nc(N)c2cnn(C)c23)cn1` (stereo not drawn) [Compound 15, 4-amino-7-chloro-N-(6-((1-ethyl-1H-pyrazol-4-yl)ethynyl)-2,3-dihydrobenzofuran-3-yl)-N,1-dimethyl-1H-pyrazolo[4,3-c]quinoline-8-carboxamide], for which the pIC50 in the test with MTAP^-/- HCT-116 cells was 8.32.

Regarding `Cc1nn(C)cc1C#Cc1ccc2c(c1)OCC2N(C)C(=O)c1cc2c(cc1Cl)nc(N)c1cnn(C)c12` (stereo not drawn) [Compound 26, 4-amino-7-chloro-N-(6-((1,3-dimethyl-1H-pyrazol-4-yl)ethynyl)-2,3-dihydrobenzofuran-3-yl)-N,1-dimethyl-1H-pyrazolo[4,3-c]quinoline-8-carboxamide], the pIC50 with MTAP^-/- HCT-116 cells was 8.55.

For `Cc1nn(C)cc1C#Cc1ccc2c(c1)OC[C@H]2N(C)C(=O)c1cc2c(cc1Cl)nc(N)c1cnn(C)c12` [Compound 26A, (S)-4-amino-7-chloro-N-(6-((1,3-dimethyl-1H-pyrazol-4-yl)ethynyl)-2,3-dihydrobenzofuran-3-yl)-N,1-dimethyl-1H-pyrazolo[4,3-c]quinoline-8-carboxamide], the pIC50 in the test on MTAP^-/- HCT-116 cells was 9.05.

Take `CCN(C(=O)c1cc2c(cc1Cl)nc(N)c1cnn(C)c12)C1COc2cc(C#Cc3cnn(C)c3)ccc21` (stereo not drawn) [Compound 28, 4-amino-7-chloro-N-ethyl-1-methyl-N-(6-((1-methyl-1H-pyrazol-4-yl)ethynyl)-2,3-dihydrobenzofuran-3-yl)-1H-pyrazolo[4,3-c]quinoline-8-carboxamide]: the pIC50 with MTAP^-/- HCT-116 cells was 8.64.

Consider `CN(C(=O)c1cc2c3c(c(N)nc2cc1F)COC3)[C@@H]1COc2cc(C#Cc3cnn(C)c3)ccc21` [Compound 39A, (S)-4-amino-7-fluoro-N-methyl-N-(6-((1-methyl-1H-pyrazol-4-yl)ethynyl)-2,3-dihydrobenzofuran-3-yl)-1,3-dihydrofuro[3,4-c]quinoline-8-carboxamide], for which the pIC50 with MTAP^-/- HCT-116 cells is 7.96.

In the case of `CN1CCn2c(C#Cc3ccc4c(c3)OC[C@H]4N(C)C(=O)c3cc4c(cc3Cl)nc(N)c3cnn(C)c34)cnc2C1` [Compound 51A, (S)-4-amino-7-chloro-N,1-dimethyl-N-(6-((7-methyl-5,6,7,8-tetrahydroimidazo[1,2-a]pyrazin-3-yl)ethynyl)-2,3-dihydrobenzofuran-3-yl)-1H-pyrazolo[4,3-c]quinoline-8-carboxamide], in the test on MTAP^-/- HCT-116 cells, the pIC50 is 9.00.

For `CN(C(=O)c1cc2c(cc1F)nc(N)c1cnn(C)c12)[C@@H]1COc2cc(C#Cc3cccnc3F)ccc21` [Compound 54A, (S)-4-amino-7-fluoro-N-(6-((2-fluoropyridin-3-yl)ethynyl)-2,3-dihydrobenzofuran-3-yl)-N,1-dimethyl-1H-pyrazolo[4,3-c]quinoline-8-carboxamide], the pIC50 in the test with MTAP^-/- HCT-116 cells is 8.26.

`Cc1ncccc1C#Cc1ccc2c(c1)OC[C@H]2N(C)C(=O)c1cc2c(cc1Cl)nc(N)c1cnn(C)c12` [Compound 64A, (S)-4-amino-7-chloro-N,1-dimethyl-N-(6-((2-methylpyridin-3-yl)ethynyl)-2,3-dihydrobenzofuran-3-yl)-1H-pyrazolo[4,3-c]quinoline-8-carboxamide]: the pIC50 in the test with MTAP^-/- HCT-116 cells is 8.52.

As to `CN(C(=O)c1cc2c(cc1F)nc(N)c1cnn(C)c12)C1COCc2cc(C#Cc3cnn(C)c3)ccc21` (stereo not drawn) [Compound 72, 4-amino-7-fluoro-N,1-dimethyl-N-(7-((1-methyl-1H-pyrazol-4-yl)ethynyl)isochroman-4-yl)-1H-pyrazolo[4,3-c]quinoline-8-carboxamide], the pIC50 with MTAP^-/- HCT-116 cells was 8.22.

As for `CN(C(=O)c1cc2c3c(c(N)nc2cc1Cl)COC3)[C@@H]1COc2cc(C#Cc3cnn(C(F)F)c3)ccc21` [Compound 73A, (S)-4-amino-7-chloro-N-(6-((1-(difluoromethyl)-1H-pyrazol-4-yl)ethynyl)-2,3-dihydrobenzofuran-3-yl)-N-methyl-1,3-dihydrofuro[3,4-c]quinoline-8-carboxamide], the pIC50 in the test on MTAP^-/- HCT-116 cells was 7.96.

With `CN(C(=O)c1cc2c(cc1F)nc(N)c1cnn(C)c12)[C@@H]1COc2cc(C#Cc3ccc(C4CC4)nc3)ccc21` [Compound 77A, (S)-4-amino-N-(6-((6-cyclopropylpyridin-3-yl)ethynyl)-2,3-dihyrobenzofuran-3-yl)-7-fluoro-N,1-dimethyl-1H-pyrazolo[4,3-c]quinoline-8-carboxamide], the pIC50 in the test with MTAP^-/- HCT-116 cells is 7.96.
